Data on 17 compounds can be found in patent US20240093034A1, “FLUORESCENT DYES” (EXOPHARM LIMITED, priority 2020, published 2024).

In one experiment the test system is platelet-derived EVs. The experiment is described as follows: Labelling of extracellular vesicles with dyes (Superose 6 HPLC, UV and FLD detection). Particulars: EV + 2 μM dye; for FLD area (EV + dye): 1 hr 37° C., void peak area, 562 nm/583 nm (Ex/Em); for Area FLD/Area UV (EV + dye): higher ratio = greater incorporation. As to the method: Labelling of extracellular vesicles (EVs) with dyes 1-10 was performed according to the following procedure. 20 μL of platelet-derived EVs were incubated in HPLC vials with or without each dye at a final concentration of 2 μM dye, the dye stock solution being made up in water. For negative controls, an equivalent volume of the diluent solution was added to the EV solution. The sample was mixed gently. Each sample was subsequently incubated for 1 hr at 37° C. Samples were transferred and stored in the autosampler set at 4° C. A batch table was setup that injected unlabelled EVs prior to labelled EVs. A blank injection was run after each labelled EV experiment to ensure there was no carryover. 15 μL of each sample was injected onto a Superose 6 Increase column (3.2/300) from Cytiva. The flow rate was set at 0.15 mL min* The Shimadzu BioHPLC was run in isocratic mode with Buffer A: 1× PBS (phosphate-buffered saline), pH 7.4, 100 nm filtered. The column oven temperature was set at 30° C. Total run duration was 30 min. Data was collected using two detectors. The PDA (UV detector) was set to scan from 190-800 nm and a channel of the FLD (fluorescence detector) was set at 562 nm/583 nm (Ex/Em). Titration experiments were conducted to confirm that excess dye was removed. The areas of the void peaks from the 214 nm absorption and the 583 nm emission were calculated by the LabSolutions software using the manual integration function. To normalise the fluorescent signal, the total fluorescent area was divided by the UV 214 nm area. This ratio can be used to rank each dye, with higher ratios indicative of greater incorporation.

The test system of experiment [1] is normal human dermal fibroblasts (NHDF). The experiment can be described thus: Labelling of human cells with dyes (plate fluorescence). Type of experiment: cell-based. The conditions noted are these: 2 μM dye, 1 hr 37° C., washed with HBSS; higher = more incorporation. As to the method: Labelling of human cells with dyes 1-10 was performed according to the following procedure. Each well of a Costar 96 well flat bottom plate was seeded with 5,000 normal human dermal fibroblasts (NHDF; not older than P9) and allowed to attach overnight in full media: fibroblast growth media (Lonza)+2% v/v fetal calf serum. Each dye was diluted 1:50 from a stock of 1 mM with 10 mM L-histidine, 150 mM NaCl, pH 6.0, to a final concentration of 20 μM. The dye was subsequently added to full media at a further 1:10 dilution to a final concentration of 2 μM. The media on the cells was subsequently replaced with the freshly prepared full media containing the dye. For negative controls, an equivalent volume of the diluent solution was added to the cell solution. Cells were incubated for 1 hr at 37° C. and then washed with 1 xHBSS (Hank's balanced salt solution) to remove free dye. Plate was imaged using the CLARIOStar spectrophotometer (5x5 matrix mode, average of 25 data points, 3 wells for each dye). A higher fluorescence indicates a higher amount of incorporation into the cells.

In the next experiment the test system is NHDF cells. The experiment can be described thus: Labelling of NHDF cells with dyes alone and with EVs (Plexaris) labelled with dyes. Type of experiment: cell-based, human. The conditions noted are these: for incorporation into NHDFs, Plexaris (PLX)+dye (FIG. 6): Example 9, 0.2 μM dye, 1 hr 37° C.; for extent of incorporation into cells versus dye 2 alone (FIG. 4(a)) / extent of incorporation into cells versus PLX+dye 2 (FIG. 4(b)): 0.2 μM; for extent of incorporation into cells versus dye 2 alone (FIG. 4(a)): normalised to dye 2; for extent of incorporation into cells versus PLX+dye 2 (FIG. 4(b)): dye with PLX, normalised to Plexaris+dye 2. As to the method:
(§1) Labelling of NHDF cells with dyes 11-18 alone and EVs labelled with dyes 11-18 was performed according to the following procedure. Each well of a Costar 96 well flat bottom plate was seeded with 5,000 normal human dermal fibroblasts (NHDF; not older than P9) and allowed to attach overnight in full media: fibroblast growth media (Lonza)+2% v/v fetal calf serum. Each dye was diluted in water to a final concentration of 1 mM. The dyes were then diluted to a final concentration of 2 μM in either a base formulation (1× PBS) or a sample of Plexaris (purified EVs derived from platelets) in 1× PBS and incubated at 1 hr at 37° C. The dyes were subsequently added onto the NHDFs at a further 1:10 dilution to a final concentration of 0.2 μM. Cells were incubated for 1 hr at 37° C. and then washed with 1× HBSS (Hank's balanced salt solution) to remove free dye. Plate was imaged using the CLARIOStar spectrophotometer (5×5 matrix mode, average of 25 data points, 3 wells for each dye). The data was normalised against either dye 2 or Plexaris+dye 2. A higher fluorescence indicates a higher amount of incorporation into the cells.
as §1, with “with” for “with dyes 11-18 alone and”, “4, 6, 17, 18, 23, 24 and 25” for “11-18”, “phosphate buffered saline (PBS)” for “water”, “in” for “in either a base formulation (1× PBS) or a sample of”, “in” for “in 1×”, “against” for “against either dye 2 or”

As to `CCCCCCCCCCCCCCCCN(C)C(=O)c1ccccc1-c1c2ccc(=[N+](CC)CC)cc-2oc2cc(N(CC)CC)ccc12.[Cl-]` [Dye 1, Rhodamine B N-methylhexadecylamide], in the experiment on platelet-derived EVs, the “FLD area (EV + dye)” value is given as 2281007 and the “Area FLD/Area UV (EV + dye)” value came to 2.09. Moreover, the FLD in experiment [1] was determined as 120641.
The matching figures for `CCCCCCCCCCCCCCCCCCCCN(C)C(=O)c1ccccc1-c1c2ccc(=[N+](CC)CC)cc-2oc2cc(N(CC)CC)ccc12.[Cl-]` [Dye 3, Rhodamine B N-methylicosaneamide]: 4270562, 3.63 and 43073.
For `CCCCCCCCCCCCCCCCCCCCCCN(C)C(=O)c1ccccc1-c1c2ccc(=[N+](CC)CC)cc-2oc2cc(N(CC)CC)ccc12.[Cl-]` [Dye 4], in the experiment with platelet-derived EVs, the “FLD area (EV + dye)” value is reported as 1901680 and the “Area FLD/Area UV (EV + dye)” value turned out to be 2.08. In addition, the FLD in experiment [1] is reported as 18027. Besides, in the experiment on NHDF cells, the “incorporation into NHDFs, Plexaris (PLX)+dye (FIG. 6)” value (“incorporation into NHDFs, Plexaris” below) is “found to incorporate into NHDFs”.
`CCCCCCCCCCCCCCN(CCCCC)C(=O)c1ccccc1-c1c2ccc(=[N+](CC)CC)cc-2oc2cc(N(CC)CC)ccc12.[Cl-]` [Dye 5, Rhodamine B N-pentyltetradecanamide]: in the experiment on platelet-derived EVs, the “FLD area (EV + dye)” value stood at 2405326 and the “Area FLD/Area UV (EV + dye)” value is recorded as 1.25. This compound also had an FLD in experiment [1] of 106332.
As for `CCCCCCCCCCCCCCCCCCN(CCCCC)C(=O)c1ccccc1-c1c2ccc(=[N+](CC)CC)cc-2oc2cc(N(CC)CC)ccc12.[Cl-]` [Dye 6, Rhodamine B N-pentyloctadecanamide], in the experiment on platelet-derived EVs, the “FLD area (EV + dye)” value was determined as 4247970 and the “Area FLD/Area UV (EV + dye)” value is reported as 2.36. In addition, in experiment [1], the FLD stood at 20270. Besides, the “incorporation into NHDFs, Plexaris” value with NHDF cells is recorded as “found to incorporate into NHDFs”.
For `CCCCCCCCCCCCCCCCN(CCOC)C(=O)c1ccccc1-c1c2ccc(=[N+](CC)CC)cc-2oc2cc(N(CC)CC)ccc12.[Cl-]` [Dye 7, Rhodamine B N-ethyl methyl ether hexadecanamide], in the experiment on platelet-derived EVs, the “FLD area (EV + dye)” value is 1456410 and the “Area FLD/Area UV (EV + dye)” value stood at 1.38. The compound further came in with an FLD in experiment [1] of 97347.
For the compound `CCCCCCCCCCCCCCCCCCN(CCOC)C(=O)c1ccccc1-c1c2ccc(=[N+](CC)CC)cc-2oc2cc(N(CC)CC)ccc12.[Cl-]` [Dye 8, Rhodamine B N-ethyl methyl ether octadecanamide], in the experiment with platelet-derived EVs, the “FLD area (EV + dye)” value turned out to be 3422473 and the “Area FLD/Area UV (EV + dye)” value stood at 2.92. Further, in experiment [1], the FLD is 83404.
The matching figures for `CCCCCCCCCCCCCCCCCCN(CCO)C(=O)c1ccccc1-c1c2ccc(=[N+](CC)CC)cc-2oc2cc(N(CC)CC)ccc12.[Cl-]` [Dye 9, Rhodamine B N-(2-hydroxyethyl)octadecanamide]: 4558422, 3.33 and 83536.
In the case of `CCCCCCCCCCCCCCCCCCCCN(CCOC)C(=O)c1ccccc1-c1c2ccc(=[N+](CC)CC)cc-2oc2cc(N(CC)CC)ccc12.[Cl-]` [Dye 10, Rhodamine B N-ethyl methyl ether icosaneamide], in the experiment on platelet-derived EVs, the “FLD area (EV + dye)” value stood at 2826617 and the “Area FLD/Area UV (EV + dye)” value turned out to be 2.55. The same compound had an FLD in experiment [1] of 45943.
`CCCCCCCCCCCCCCCCCCCN(C)C(=O)c1ccccc1-c1c2ccc(=[N+](CC)CC)cc-2oc2cc(N(CC)CC)ccc12.[Cl-]` [Dye 12, Rhodamine B N-methylnonadecylamide]: in the experiment on NHDF cells, the “extent of incorporation into cells versus dye 2 alone (FIG. 4(a))” value is “incorporated to the cells to a larger extent” and the “extent of incorporation into cells versus PLX+dye 2 (FIG. 4(b))” value was “incorporated to the cells to a larger extent”.
Regarding `CCCCCCCCCCCCCCCCCCN(CCC)C(=O)c1ccccc1-c1c2ccc(=[N+](CC)CC)cc-2oc2cc(N(CC)CC)ccc12.[Cl-]` [Dye 14, Rhodamine B N-propyloctadecylamide], in the experiment with NHDF cells, the “extent of incorporation into cells versus dye 2 alone (FIG. 4(a))” value is recorded as “incorporated to the cells to a larger extent” and the “extent of incorporation into cells versus PLX+dye 2 (FIG. 4(b))” value is “incorporated to the cells to a larger extent”.
In the case of `CCCCCCCCCCCCCCCCCCN(CC)C(=O)c1ccccc1-c1c2ccc(=[N+](CC)CC)cc-2oc2cc(N(CC)CC)ccc12.[Cl-]` [Dye 15, Rhodamine B N-ethyloctadecylamide], in the experiment with NHDF cells, the “extent of incorporation into cells versus dye 2 alone (FIG. 4(a))” value was “incorporated to the cells to a larger extent” and the “extent of incorporation into cells versus PLX+dye 2 (FIG. 4(b))” value is “incorporated to the cells to a larger extent”.
With `CCCCCCCC/C=C\CCCCCCCCN(C)C(=O)c1ccccc1-c1c2ccc(=[N+](CC)CC)cc-2oc2cc(N(CC)CC)ccc12` [Dye 17, Rhodamine B N-methyloleylamide], in the experiment on NHDF cells, the “incorporation into NHDFs, Plexaris” value is recorded as “found to incorporate into NHDFs”; the “extent of incorporation into cells versus dye 2 alone (FIG. 4(a))” value is reported as “incorporated to the cells to a larger extent”; the “extent of incorporation into cells versus PLX+dye 2 (FIG. 4(b))” value is recorded as “incorporated to the cells to a larger extent”.
As for `CCCCCCCC/C=C/CCCCCCCCN(C)C(=O)c1ccccc1-c1c2ccc(=[N+](CC)CC)cc-2oc2cc(N(CC)CC)ccc12` [Dye 18, Rhodamine B N-methylelaidylamide], in the experiment on NHDF cells, the “incorporation into NHDFs, Plexaris” value is given as “found to incorporate into NHDFs”; the “extent of incorporation into cells versus dye 2 alone (FIG. 4(a))” value was “incorporated to the cells to a larger extent”; the “extent of incorporation into cells versus PLX+dye 2 (FIG. 4(b))” value is given as “incorporated to the cells to a larger extent”.
Take `CCCCCCCCCCCCCCCCCCN(C)C(=O)c1ccccc1-c1c2cc/c(=[N+](/CC)CC(F)(F)F)cc-2oc2cc(N(CC)CC(F)(F)F)ccc12.[Cl-]` [Dye 23, hexafluoro Rhodamine B N-methyloctadecylamide]: the “incorporation into NHDFs, Plexaris” value with NHDF cells is listed as “found to incorporate into NHDFs”.
In the case of `CCCCCCCC/C=C/CCCCCCCCN(C)C(=O)c1ccccc1-c1c2cc/c(=[N+](/CC)CC(F)(F)F)cc-2oc2cc(N(CC)CC(F)(F)F)ccc12.[Cl-]` [Dye 24], the “incorporation into NHDFs, Plexaris” value in the experiment with NHDF cells is on record as “found to incorporate into NHDFs”.
On the same count and under the same terms, the result for `CCCCCCCC/C=C\CCCCCCCCN(C)C(=O)c1ccccc1-c1c2cc/c(=[N+](/CC)CC(F)(F)F)cc-2oc2cc(N(CC)CC(F)(F)F)ccc12.[Cl-]` [Dye 25, hexafluoro rhodamine B N-methyloleylamide] reads “found to incorporate into NHDFs”.
